According to patent publication US20250115576A1, “THERAPEUTIC COMPOUNDS AND METHODS OF USE THEREOF” (Genentech, Inc., priority 2018, published 2025):
Counter-ions that a name gives are not always drawn.

target: hNav1.7 (Homo sapiens (Human), UniProt Q15858); test: Patch voltage clamp electrophysiology (EP), Syncropatch 384PE, CHO cells stably expressing Nav1.7; type: cell-based; conditions: holding potential −50 mV, 7.5 min compound incubation, read-out: EP_SP hNav1.7 EVO IC50
Text: Example 64c. Electrophysiological Assay (EP) (In Vitro Assay)
Patch voltage clamp electrophysiology allows for the direct measurement and quantification of block of voltage-gated sodium channels (NaV's), and allows the determination of the time- and voltage-dependence of block which has been interpreted as differential binding to the resting, open, and inactivated states of the sodium channel (Hille, B., Journal of General Physiology (1977), 69: 497-515).
The following voltage clamp electrophysiology studies are performed on representative compounds using cells heterologously expressing Nav1.7 or Nav1.5 channels. cDNAs for Nav1.7 (NM_002977) and Nav1.5 (AC137587) are stably expressed in Chinese Hamstr Ovary (CHO) cells and CHL (Chinese Hamster Lung) cells respectively. Sodium currents are measured in the whole-cell configuration using Syncropatch 384PE (Nanlon Technologies, Germany). 1NPC®-384 chips with custom medium resistance and single hole mode are used. Internal solution consists of (in mM): […], 10 CsCl, 20 EGTA, and 10 Hepes (pH adjusted to 7.2); and external solution contains (in mM): 60 NMDG, 80 NaCl, 4 KCl, 1 MgCl2, 2 CaCl2, 2 D-Glucose monohydrate, 10 Hepes (pH adjusted to 7.4 with NaOH).
After system flushing, testing compounds are dissolved in external solution containing 0.1% Pluronic F-127. The chip is moved into the measuring head and the instrument primes the chip with external and internal solutions. 10 μl cells are added to the chip from a cell hotel, and a negative pressure of −50 mBar is applied to form a seal. Following treatment with seal enhancer solution and wash-off with external solution, negative pressure of −250 mbar is applied for 1 second to achieve the whole-cell configuration, followed by three washing steps in external solution. 20 μl of compounds is added to 40 μl in each well (1:3 dilution of compounds), and after mixing, 20 μl is removed so the volume is retained at 40 ul. After approximately 13 minutes recordings, 20 μl/well of 2 uM TTX, or 333 uM Tetracaine (for […]) is added to achieve full block.
For voltage protocol, an holding potential of −50 mV is applied during the whole experiment. A depolarizing step is applied to −10 mV for 10 ms, followed by a hyperpolarization step to −150 mV for 20 ms to allow channel recovery from inactivation. A second depolarizing step is applied from −150 mV to −10 mV for 10 ms, where currents are measured to derive blocking effects of compounds. Inhibition is determined based on 7.5 min of compound incubation.

Sequence of hNav1.7 (Q15858 other isoform, or with tags, fused parts or gaps): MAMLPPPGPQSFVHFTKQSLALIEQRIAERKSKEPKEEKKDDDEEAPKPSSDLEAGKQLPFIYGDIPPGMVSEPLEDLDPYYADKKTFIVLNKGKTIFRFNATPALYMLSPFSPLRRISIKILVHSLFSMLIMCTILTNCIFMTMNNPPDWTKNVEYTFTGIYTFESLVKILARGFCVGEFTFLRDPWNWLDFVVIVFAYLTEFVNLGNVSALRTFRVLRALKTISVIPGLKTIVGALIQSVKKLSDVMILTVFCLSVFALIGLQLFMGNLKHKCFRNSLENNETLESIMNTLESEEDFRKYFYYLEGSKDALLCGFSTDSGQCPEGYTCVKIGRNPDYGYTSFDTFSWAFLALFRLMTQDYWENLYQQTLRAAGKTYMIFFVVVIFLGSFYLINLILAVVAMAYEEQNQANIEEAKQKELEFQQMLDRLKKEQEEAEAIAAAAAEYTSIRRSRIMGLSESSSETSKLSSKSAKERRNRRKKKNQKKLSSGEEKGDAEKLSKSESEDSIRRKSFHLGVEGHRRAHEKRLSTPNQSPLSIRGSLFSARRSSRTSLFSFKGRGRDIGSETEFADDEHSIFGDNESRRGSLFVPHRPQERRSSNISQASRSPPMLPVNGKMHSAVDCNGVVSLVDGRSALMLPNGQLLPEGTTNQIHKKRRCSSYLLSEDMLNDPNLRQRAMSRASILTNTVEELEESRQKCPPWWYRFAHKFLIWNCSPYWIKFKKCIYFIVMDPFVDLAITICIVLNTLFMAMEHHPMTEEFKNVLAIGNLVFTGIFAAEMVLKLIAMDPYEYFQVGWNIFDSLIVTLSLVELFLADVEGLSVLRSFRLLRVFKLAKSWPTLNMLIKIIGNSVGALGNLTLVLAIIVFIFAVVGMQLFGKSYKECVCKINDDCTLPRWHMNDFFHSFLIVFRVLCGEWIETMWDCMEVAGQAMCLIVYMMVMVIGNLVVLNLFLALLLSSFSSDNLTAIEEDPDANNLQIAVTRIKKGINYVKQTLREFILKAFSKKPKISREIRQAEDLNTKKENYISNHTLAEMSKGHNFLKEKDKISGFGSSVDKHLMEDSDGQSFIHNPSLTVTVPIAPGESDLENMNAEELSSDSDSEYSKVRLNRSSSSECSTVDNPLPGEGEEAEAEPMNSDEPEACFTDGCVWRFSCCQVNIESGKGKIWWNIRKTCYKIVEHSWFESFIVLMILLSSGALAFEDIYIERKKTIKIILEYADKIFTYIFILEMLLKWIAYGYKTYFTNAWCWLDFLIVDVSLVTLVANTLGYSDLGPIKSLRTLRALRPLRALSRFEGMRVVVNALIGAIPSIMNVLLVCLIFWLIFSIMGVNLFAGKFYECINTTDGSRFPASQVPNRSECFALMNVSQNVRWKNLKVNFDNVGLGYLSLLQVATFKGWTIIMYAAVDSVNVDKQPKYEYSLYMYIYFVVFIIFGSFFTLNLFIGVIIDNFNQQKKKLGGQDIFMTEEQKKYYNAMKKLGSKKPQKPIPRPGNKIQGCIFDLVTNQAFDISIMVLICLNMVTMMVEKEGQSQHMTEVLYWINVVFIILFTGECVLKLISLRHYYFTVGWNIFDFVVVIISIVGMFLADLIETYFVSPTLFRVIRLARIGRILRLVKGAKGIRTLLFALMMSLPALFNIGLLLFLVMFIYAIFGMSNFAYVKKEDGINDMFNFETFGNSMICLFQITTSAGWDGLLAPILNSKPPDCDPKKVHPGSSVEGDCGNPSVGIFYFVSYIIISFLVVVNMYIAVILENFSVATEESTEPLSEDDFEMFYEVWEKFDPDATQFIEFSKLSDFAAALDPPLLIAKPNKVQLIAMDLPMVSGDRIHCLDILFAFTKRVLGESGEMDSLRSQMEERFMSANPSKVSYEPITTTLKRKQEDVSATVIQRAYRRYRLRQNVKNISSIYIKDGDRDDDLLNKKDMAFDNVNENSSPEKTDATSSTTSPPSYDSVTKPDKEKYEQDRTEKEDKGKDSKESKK

Row | SMILES | IC50 [nM]
1 | Cc1nc(O[C@H]2CC[C@H](c3cccc(OC(F)(F)F)c3)C[C@@H]2N(C)C)ccc1S(=O)(=O)Nc1ccncn1 [Example 28, 6-(((1S,2S,4S)-2-(Dimethylamino)-4-(3-(trifluoromethoxy)phenyl)cyclohexyl)oxy)-2-methyl-N-(pyrimidin-4-yl)pyridine-3-sulfonamide] | 0.664
2 | Cc1nc(O[C@H]2CC[C@H](c3cccc(C(F)(F)F)c3)C[C@@H]2N2CCCC2)ccc1S(=O)(=O)Nc1ccncn1 [Example 29, 2-Methyl-N-(pyrimidin-4-yl)-6-(((1S,2S,4S)-2-(pyrrolidin-1-yl)-4-(3-(trifluoromethyl)phenyl)-cyclohexyl)oxy)pyridine-3-sulfonamide] | 5.62
3 | Cc1nc(O[C@H]2CC[C@H](c3cccc(OC(F)(F)F)c3)C[C@@H]2N2CCCC2)ccc1S(=O)(=O)Nc1ccncn1 [Example 30, 2-Methyl-N-(pyrimidin-4-yl)-6-(((1S,2S,4S)-2-(pyrrolidin-1-yl)-4-(3-(trifluoromethoxy)phenyl)-cyclohexyl)oxy)pyridine-3-sulfonamide] | 1.07
4 | CN(C)[C@H]1C[C@@H](c2cccc(C(F)(F)F)c2)CC[C@@H]1Oc1cc(Cl)c(S(=O)(=O)Nc2ccncn2)cn1 [Example 31, 4-Chloro-6-(((1S,2S,4S)-2-(dimethylamino)-4-(3-(trifluoromethyl)phenyl)cyclohexyl)oxy)-N-(pyrimidin-4-yl)pyridine-3-sulfonamide] | 10
5 | Cc1cc(O[C@H]2CC[C@H](c3cccc(C(F)(F)F)c3)C[C@@H]2N(C)C)ncc1S(=O)(=O)Nc1ccncn1 [Example 32, 6-(((1S,2S,4S)-2-(Dimethylamino)-4-(3-(trifluoromethyl)phenyl)cyclohexyl)oxy)-4-methyl-N-(pyrimidin-4-yl)pyridine-3-sulfonamide] | 37.1
6 | CCc1nc(O[C@H]2CC[C@H](c3cccc(C(F)(F)F)c3)C[C@@H]2N(C)C)ccc1S(=O)(=O)Nc1ccncn1 [Example 33, 6-(((1S,2S,4S)-2-(Dimethylamino)-4-(3-(trifluoromethyl)phenyl)cyclohexyl)oxy)-2-ethyl-N-(pyrimidin-4-yl)pyridine-3-sulfonamide] | 16.3
7 | CN(C)[C@H]1C[C@@H](c2cccc(C(F)(F)F)c2)CC[C@@H]1Oc1ccc(S(=O)(=O)Nc2ccncn2)c(C2CC2)n1 [Example 34, 2-Cyclopropyl-6-(((1S,2S,4S)-2-(dimethylamino)-4-(3-(trifluoromethyl)phenyl)-cyclohexyl)oxy)-N-(pyrimidin-4-yl)pyridine-3-sulfonamide] | 154
8 | Cc1nc(O[C@H]2CC[C@H](c3cccc(C(F)(F)F)c3)C[C@@H]2N(C)C2CCC2)ccc1S(=O)(=O)Nc1ccncn1 [Example 35, 6-(((1S,2S,4S)-2-(Cyclobutyl(methyl)amino)-4-(3-(trifluoromethyl)phenyl)cyclohexyl)oxy)-2-methyl-N-(pyrimidin-4-yl)pyridine-3-sulfonamide] | 0.597
9 | Cc1nc(O[C@H]2CC[C@H](c3ccc(Cl)c(C(F)(F)F)c3)C[C@@H]2N(C)C)ccc1S(=O)(=O)Nc1ccncn1 [Example 36, 6-(((1S,2S,4S)-4-(4-chloro-3-(trifluoromethyl)phenyl)-2-(dimethylamino)cyclohexyl)oxy)-2-methyl-N-(pyrimidin-4-yl)pyridine-3-sulfonamide] | 0.247
10 | Cc1nc(O[C@H]2CC[C@H](c3cc(C(F)(F)F)ccc3Cl)C[C@@H]2N(C)C)ccc1S(=O)(=O)Nc1ccncn1 [Example 38, 6-(((1S,2S,4S)-4-(2-chloro-5-(trifluoromethyl)phenyl)-2-(dimethylamino)cyclohexyl)oxy)-2-methyl-N-(pyrimidin-4-yl)pyridine-3-sulfonamide] | 0.409
11 | Cc1nc(O[C@H]2CC[C@H](c3cc(Cl)ccc3Cl)C[C@@H]2N(C)C)ccc1S(=O)(=O)Nc1ccncn1 [Example 39, 6-(((1S,2S,4S)-4-(2,5-dichlorophenyl)-2-(dimethylamino)cyclohexyl)oxy)-2-methyl-N-(pyrimidin-4-yl)pyridine-3-sulfonamide formate] | 0.645
12 | O=S(=O)(Nc1ccncn1)c1cnc(O[C@H]2CC[C@H](c3cccc(C(F)(F)F)n3)C[C@@H]2N2CCCC2)c(Cl)c1 [Example 40, 5-chloro-N-(pyrimidin-4-yl)-6-(((1S,2S,4S)-2-(pyrrolidin-1-yl)-4-(6-(trifluoromethyl)pyridin-2-yl)cyclohexyl)oxy)pyridine-3-sulfonamide] | 3.86
13 | Cc1nc(O[C@H]2CC[C@H](c3cc(F)cc(C(F)(F)F)c3)C[C@@H]2N(C)C)ccc1S(=O)(=O)Nc1ccncn1 [Example 42, 6-(((1S,2S,4S)-2-(Dimethylamino)-4-(3-fluoro-5-(trifluoromethyl)phenyl)cyclohexyl)oxy)-2-methyl-N-(pyrimidin-4-yl)pyridine-3-sulfonamide] | 0.646
14 | Cc1nc(O[C@H]2CC[C@H](c3cc(C(F)(F)F)ccc3F)C[C@@H]2N(C)C)ccc1S(=O)(=O)Nc1ccncn1 [Example 43, 6-(((1S,2S,4S)-2-(Dimethylamino)-4-(2-fluoro-5-(trifluoromethyl)phenyl)cyclohexyl)oxy)-2-methyl-N-(pyrimidin-4-yl)pyridine-3-sulfonamide formate] | 0.687
15 | CN(C)[C@H]1C[C@@H](c2cc(C(F)(F)F)ccc2F)CC[C@@H]1Oc1ccc(S(=O)(=O)Nc2ccncn2)c(Cl)n1 [Example 44, 2-Chloro-6-(((1S,2S,4S)-2-(dimethylamino)-4-(2-fluoro-5-(trifluoromethyl)phenyl)-cyclohexyl)oxy)-N-(pyrimidin-4-yl)pyridine-3-sulfonamide formate] | 1.81
16 | Cc1nc(O[C@H]2CC[C@H](c3ccc(F)c(C(F)(F)F)c3)C[C@@H]2N(C)C)ccc1S(=O)(=O)Nc1ccncn1 [Example 45, 6-(((1S,2S,4S)-2-(Dimethylamino)-4-(4-fluoro-3-(trifluoromethyl)phenyl)cyclohexyl)oxy)-2-methyl-N-(pyrimidin-4-yl)pyridine-3-sulfonamide formate] | 0.473
17 | Cc1nc(O[C@H]2CC[C@H](c3cccc(C(F)(F)F)c3F)C[C@@H]2N(C)C)ccc1S(=O)(=O)Nc1ccncn1 [Example 46, 6-(((1S,2S,4S)-2-(Dimethylamino)-4-(2-fluoro-3-(trifluoromethyl)phenyl)cyclohexyl)oxy)-2-methyl-N-(pyrimidin-4-yl)pyridine-3-sulfonamide formate] | 0.917
18 | CCN(CC)[C@H]1C[C@@H](c2cccc(C(F)(F)F)c2)CC[C@@H]1Oc1ccc(S(=O)(=O)Nc2ccncn2)c(C)n1 [Example 47, 6-(((1S,2S,4S)-2-(Diethylamino)-4-(3-(trifluoromethyl)phenyl)cyclohexyl)oxy)-2-methyl-N-(pyrimidin-4-yl)pyridine-3-sulfonamide] | 1.73
19 | CCN(C)[C@H]1C[C@@H](c2cccc(C(F)(F)F)c2)CC[C@@H]1Oc1ccc(S(=O)(=O)Nc2ccncn2)c(C)n1 [Example 48, 6-(((1S,2S,4S)-2-(Ethyl(methyl)amino)-4-(3-(trifluoromethyl)phenyl)cyclohexyl)oxy)-2-methyl-N-(pyrimidin-4-yl)pyridine-3-sulfonamide] | 0.272
20 | Cc1nc(O[C@H]2CC[C@H](c3cc(Cl)cc(C(F)(F)F)c3)C[C@@H]2N(C)C)ccc1S(=O)(=O)Nc1ccncn1 [Example 49, 6-(((1S,2S,4S)-4-(3-chloro-5-(trifluoromethyl)phenyl)-2-(dimethylamino)cyclohexyl)oxy)-2-methyl-N-(pyrimidin-4-yl)pyridine-3-sulfonamide] | 0.188
